Drawing on publication PMC8835884 (2022), this text covers binding and KD for three compounds.

In assay [1] the test system is TQ3/Cy3-fl (RNA, riboswitch, aminoallyl-U conjugated to TQ3 at 24; Cy3-C at 55) GGGAAGAUAUAAUCCUAAUGAUAUGGUUUGGGAGUUUCUACCAAGAGCCUUAAACUCUUGAUUAUCUUCUCUGUCGCUUUAUCCCAAAUUUUAUAAAGAGAAGACUCAUGAAU
As to the kind of experiment: Cy3-TQ3 FRET quenching titration, steady-state fluorescence. The conditions noted are these: Mg2+ not stated.

Assay [2] has as its system TQ3/Cy3-apt (RNA, riboswitch, aminoallyl-U conjugated to TQ3 at 24; Cy3-C at 55) GGGAAGAUAUAAUCCUAAUGAUAUGGUUUGGGAGUUUCUACCAAGAGCCUUAAACUCUUGAUUAUCUUCCC
Kind of assay: Cy3-TQ3 FRET quenching titration, steady-state fluorescence, sigmoidal fit. The conditions noted are these: 100 mM KCl, 2 mM MgCl2; 10 mM HEPES, pH 7.5; 0.4 μM RNA; apparent.

Assay [3] has as its system TQ3/Cy3-fl (RNA, riboswitch, aminoallyl-U conjugated to TQ3 at 24; Cy3-C at 55) GGGAAGAUAUAAUCCUAAUGAUAUGGUUUGGGAGUUUCUACCAAGAGCCUUAAACUCUUGAUUAUCUUCUCUGUCGCUUUAUCCCAAAUUUUAUAAAGAGAAGACUCAUGAAU
The description is as above. The following applies: 100 mM KCl, 2 mM MgCl2; 10 mM HEPES, pH 7.5; 0.4 μM RNA; apparent.

Molecules are shown by their SMILES.

As for `Nc1nc2[nH]cnc2c(=O)[nH]1`, in assay [1] (tested up to 1 mM guanine), the binding entry is on record as “no”.

`Nc1ncnc2[nH]cnc12`: the KD is 61.833 ± 0.621 µM in assay [2] and 15.826 ± 0.287 µM in assay [3].

With `Nc1ncnc2c1ncn2[C@@H]1O[C@H](COP(=O)(O)OP(=O)(O)OP(=O)(O)O)[C@@H](O)[C@H]1O`, the binding result in assay [1] (tested up to 1 mM ATP) is recorded as “no”.
